Results as given in article PMC7497253, “Structure‐Based Macrocyclization of Substrate Analogue NS2B‐NS3 Protease Inhibitors of Zika, West Nile and Dengue viruses” (Chemmedchem, 2020).

Tests used:
Type in all cases: biochemical
[1] = molecular target: T1, WNV NS2B-NS3 protease (WNV-Pro) (West Nile virus, UniProt P06935); experiment: Enzyme kinetics with the covalent WNV NS2B-NS3 construct, substrate Phac-Leu-Lys-Lys-Arg-AMC
T1 construct: NS3 has to form a complex with its cofactor NS2B to achieve proteolytic activity; The viral protease consists of the N‐terminal third of the nonstructural protein NS3
Procedure: (§1) Enzyme kinetics. Measurements with bZiPro15 and the covalent WNV NS2B‐NS3 construct^10 were performed at room temperature in black 96 well plates using a Fluoroskan Ascent® plate reader (Thermo Fisher Scientific, Vantaa, Finland) with λ ex at 355 nm and λ em at 460 nm. Each well contained 125 μL inhibitor dissolved in buffer (for bZiPro: 20 mM Tris×HCl pH 8.5, 2 mM DTT, 10 w/v glycerol and 0.01 w/v Triton X‐100;18 for WNV protease: 100 mM Tris×HCl pH 8.5, containing 32 w/v glycerol and 0.01 w/v Triton X‐10012) and 50 μL substrate Phac‐Leu‐Lys‐Lys‐Arg‐AMC12 (40 μM for bZiPro (10 μM in assay, K M=1.4 μM) and 400 μM for the WNV protease (100 μM in assay, K M=53 μM)). The measurements were started by addition of 25 μL enzyme solution (16 nM for bZiPro (2.0 nM in assay), and 64 nM for the WNV protease (8.0 nM in assay)). Data points were collected each 15 s over a period of 10 min using eight different inhibitor concentrations. […] The K i values and their standard deviation were obtained from at least three independent measurements.(1) vi=Vmax×[S]/KM1+[I]/Ki+[S]

[2] = molecular target: T2, bZiPro (unlinked binary Zika virus NS2B-NS3 protease) (Zika virus, UniProt A0A024B7W1); experiment: Enzyme kinetics with bZiPro, fluorogenic substrate Phac-Leu-Lys-Lys-Arg-AMC; conditions: for Ki: K i bZiPro, mean±SD of at least three independent measurements, substrate 10 μM in assay, room temperature, pH 8.5
T2 construct: The viral protease consists of the N‐terminal third of the nonstructural protein NS3; the NS2B construct ends at Glu96; His6 (cleaved yes); made in house
Procedure: as §1
The constants K M and V max were obtained from independent measurements with six different substrate concentrations in absence of inhibitor. For inhibitor 10 with bZiPro, additional measurements at three substrate concentrations (10, 5, and 2.5 μM in assay) were performed to obtain the Dixon plot shown in Figure 4.

[3] = molecular target: T3, trypsin (Bos taurus, UniProt P00760); experiment: Enzyme kinetic assay with trypsin (selectivity); conditions: at concentrations of 75 μM
T3 construct: gene PRSS1
T3 sequence (P00760 24-246): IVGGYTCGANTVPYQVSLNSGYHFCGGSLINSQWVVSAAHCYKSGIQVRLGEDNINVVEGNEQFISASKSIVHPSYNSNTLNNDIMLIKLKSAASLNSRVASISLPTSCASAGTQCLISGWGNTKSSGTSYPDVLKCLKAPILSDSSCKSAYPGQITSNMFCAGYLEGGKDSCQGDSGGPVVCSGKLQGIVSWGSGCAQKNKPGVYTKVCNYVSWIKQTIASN
Text: (§2) Some of the latter group, like the peptidic arginal8 or boroarginine derivatives,10 form a reversible covalent bond with their target. […] With respect to virus replication, mutations in allosteric binding pockets are better tolerated than changes in the active site, which often lead to a more severe influence on the fitness of the virus.31, 32 This advantage justifies further efforts for the improvement of active site inhibitors. One strategy to reduce the conformational freedom of peptide derivatives and predisposing them to a favorable orientation for binding is their macrocyclization, leading to improved potency, selectivity and stability.33 By this approach, we have prepared numerous noncovalent inhibitors with excellent selectivity for the tested flavivirins, when compared with trypsin‐like serine proteases or basic proprotein convertases. […] The deep S1 pocket of trypsin34 and furin35 cannot tolerate a branching close to the basic P1 guanidine anchor, which is well accepted by the flavivirins due to their flat and open S1 site. In contrast to some of our previously described linear C‐terminal elongated derivatives,18, 36 the cyclic derivatives are fully stable when incubated with bZiPro, as analyzed by mass spectrometry (Figure S3). […]

[4] = molecular target: furin (Homo sapiens, UniProt P09958); experiment: Enzyme kinetic assay with furin (selectivity); conditions: at concentrations of 75 μM
Text: as §2

[5] = molecular target: T4, bD4Pro (unlinked binary dengue-4 virus NS2B-NS3 protease) (Dengue virus type 4, UniProt Q2YHF2); experiment: Enzyme kinetics with bD4Pro, substrate Benzoyl-Nle-Lys-Arg-Arg-AMC
T4 construct: The viral protease consists of the N‐terminal third of the nonstructural protein NS3; NS3 has to form a complex with its cofactor NS2B to achieve proteolytic activity; His6 (cleaved yes); made in house
T4 sequence (Q2YHF2 1475-1652 limits assumed): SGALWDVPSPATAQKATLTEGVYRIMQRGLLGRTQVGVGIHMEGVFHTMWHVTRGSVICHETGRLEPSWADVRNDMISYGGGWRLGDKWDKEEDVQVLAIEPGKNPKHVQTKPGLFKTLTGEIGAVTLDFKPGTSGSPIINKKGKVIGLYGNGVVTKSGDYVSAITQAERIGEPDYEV
T4 sequence (Q2YHF2 1397-1436 limits assumed): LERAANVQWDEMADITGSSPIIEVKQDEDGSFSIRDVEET
Procedure: Measurements with the dengue 4 virus protease construct (bD4Pro; expressed and purified by a similar methodology as described for bZiPro15 with slight modification of using Tobacco Etch Virus (TEV) protease instead of thrombin for His6‐tag cleavage) were performed in a Cytation 3 Mulitmode plate reader with λ ex at 380 nm and λ em at 460 nm. Assays were carried out as triplicate at 37 °C. Before measurement, the protease (final assay concentration 3 nM) was preincubated with varying concentrations of inhibitors in assay buffer (20 mM Tris pH 8.5, 10 % glycerol, 0.01 % Triton X‐100) for 1 h at room temperature in Corning black clear bottom 96‐well plates. The reaction was started by addition of the substrate Benzoyl‐Nle‐Lys‐Arg‐Arg‐AMC (final assay concentration 50 μM, K M=48.4 μM). Fluorescent readings were recorded at 1‐minute intervals over 10 minutes. The steady‐state rates v i in presence of inhibitor were calculated from the slopes of the progress curves using Graph Pad Prism. The v i values were fitted to Equation (2) as function of the inhibitor concentration [I] providing the IC50 values, where v 0 is the rate in absence of inhibitor and s a slope factor. The obtained IC50 values were finally converted into K i values by the Cheng‐Prusoff Equation (2).(2) vi=v0/1+I/IC50^s (3) Ki=IC50/1+S/KM

T2 sequence (A0A024B7W1 1503-1680 limits assumed): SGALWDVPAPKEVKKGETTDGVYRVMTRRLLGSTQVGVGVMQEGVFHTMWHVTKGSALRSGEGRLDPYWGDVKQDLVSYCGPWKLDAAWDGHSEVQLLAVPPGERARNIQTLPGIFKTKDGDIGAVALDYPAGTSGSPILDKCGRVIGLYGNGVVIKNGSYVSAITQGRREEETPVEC
T2 sequence (A0A024B7W1 1425-1464 limits assumed): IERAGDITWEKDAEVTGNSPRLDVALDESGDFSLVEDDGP
T1 sequence (P06935 1424-1463): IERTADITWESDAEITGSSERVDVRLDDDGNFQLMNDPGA
T1 sequence (P06935 1502-1679): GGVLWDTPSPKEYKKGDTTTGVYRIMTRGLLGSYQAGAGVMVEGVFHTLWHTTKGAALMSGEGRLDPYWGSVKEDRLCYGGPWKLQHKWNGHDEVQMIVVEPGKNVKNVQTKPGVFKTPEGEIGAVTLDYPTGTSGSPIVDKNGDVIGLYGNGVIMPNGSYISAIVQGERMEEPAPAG
furin, sequence (P09958 108-794): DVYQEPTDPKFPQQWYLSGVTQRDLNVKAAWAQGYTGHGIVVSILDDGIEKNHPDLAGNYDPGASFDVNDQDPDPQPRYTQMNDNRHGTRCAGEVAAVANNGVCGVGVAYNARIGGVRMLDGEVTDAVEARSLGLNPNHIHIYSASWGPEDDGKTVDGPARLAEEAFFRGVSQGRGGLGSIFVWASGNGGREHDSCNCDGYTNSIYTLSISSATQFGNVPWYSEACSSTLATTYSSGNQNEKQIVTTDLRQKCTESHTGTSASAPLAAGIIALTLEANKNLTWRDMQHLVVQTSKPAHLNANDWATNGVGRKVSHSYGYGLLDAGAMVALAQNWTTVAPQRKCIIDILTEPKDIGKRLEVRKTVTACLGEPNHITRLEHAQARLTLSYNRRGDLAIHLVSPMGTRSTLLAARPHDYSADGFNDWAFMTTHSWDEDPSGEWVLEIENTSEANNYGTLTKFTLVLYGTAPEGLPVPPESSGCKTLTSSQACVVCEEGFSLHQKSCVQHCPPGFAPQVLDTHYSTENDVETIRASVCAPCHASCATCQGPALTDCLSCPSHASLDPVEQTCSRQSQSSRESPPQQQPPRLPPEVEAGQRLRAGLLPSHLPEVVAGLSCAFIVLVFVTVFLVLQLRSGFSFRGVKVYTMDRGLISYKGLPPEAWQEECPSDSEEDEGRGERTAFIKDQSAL

Row | SMILES | Ki [1] | Ki [2] | binding mode from Dixon plot of bZiPro inhibition ([2]; substrate 10, 5 and 2.5 μM, bZiPro 1.96 nM in assay) | inhibition of trypsin [3] | inhibition of furin [4] | Ki [5]
1 | N=C(N)N[C@@H]1CCCCNC(=O)[C@H](CCCCN)NC(=O)[C@H](CCCCN)NC(=O)Cc2cccc(c2)CNC(=O)CNC1=O [Inhibitor 10, 1‐((8R,15S,18S)‐15,18‐bis(4‐aminobutyl)‐4,7,14,17,20‐pentaoxo‐3,6,13,16,19‐pentaaza‐1(1,3)‐benzenacyclohenicosaphane‐8‐yl)guanidine] | 138 ± 31 nM | 1.57 ± 0.32 nM | competitive reversible | could not detect any inhibition | could not detect any inhibition | 142 ± 10 nM
2 | N=C(N)N[C@@H]1CCCCNC(=O)[C@H](CCCCN)NC(=O)[C@H](CCCCN)NC(=O)Cc2cccc(c2)NC(=O)CNC1=O [Inhibitor 11] | 47600 ± 2500 nM | 1420 ± 270 nM |  | could not detect any inhibition | could not detect any inhibition | 60600 ± 5300 nM
3 | CC(=O)NCc1cccc(CC(=O)N[C@@H](CCCCN)C(=O)N[C@@H](CCCCN)C(=O)NCCCCCNC(=N)N)c1 [Inhibitor 32] | 4940 ± 530 nM | 88.2 ± 3.8 nM |  |  |  | 18100 ± 1200 nM
